For 19 molecules, IC50 results are on record in patent publication US12065445B2, “CDK2 inhibitors and methods of using the same” (Cedilla Therapeutics, Inc., priority 2021, dated 2024).

The subject of the experiment is Kuramochi cells. The experiment is described as follows: BrdU Cell Proliferation Assay. In kind it is cell-based. The settings on record: read-out: BrdU - KURAMOCHI.1: IC50. Put shortly: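 Signal is 450 nm absorbance from a peroxidase anti-BrdU ELISA after a 1-hour BrdU label, background-subtracted and normalized to DMSO-treated wells. Kuramochi cells (2,000 per well) had been exposed to compound for 4 days. Dosing used a 10-point dose response in 3-fold steps.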
`CC1(C)C[C@@H]1C(=O)N1CC2(CN(C(=O)c3cnn(Cc4ccccc4)c3)C[C@H]2C(=O)N2CCC[C@H](C(=O)NC3CCCCC3)C2)C1` [I-180]: the IC50 is greater than 10 µM.

For `CN(C(=O)[C@@H]1CCCN(C(=O)[C@@H]2CN(C(=O)c3cnn(Cc4ccccc4)c3)CC23CN(C(=O)[C@H]2CC2(C)C)C3)C1)C1CCCCC1` [I-181], the IC50 was greater than 10 µM.

For `CC1(C)C[C@@H]1C(=O)N1CC2(CN(C(=O)c3cnn(Cc4ccccc4)c3)C[C@H]2C(=O)N[C@H]2CCCN(C(=O)C3CCCCC3)C2)C1` [I-182], the 50% inhibitory concentration (IC50) lay within 5 to 10 µM.

For the molecule `CC1(C)C[C@@H]1C(=O)N1CC2(CN(C(=O)c3cnn(Cc4ccccc4)c3)C[C@H]2C(=O)N[C@H]2CCCN(CC3CCCCC3)C2)C1` [I-183], the IC50 was greater than 10 µM.

`CNC(=O)[C@@H](NC(=O)[C@@H]1CN(C(=O)c2scnc2C2CC2)CC12CN(C(=O)[C@H]1CC1(C)C)C2)[C@@H](C)OCC1CCCCC1` [I-185A]: the IC50 was greater than 10 µM.

With `CNC(=O)[C@@H](NC(=O)[C@H]1CN(C(=O)c2scnc2C2CC2)CC12CN(C(=O)[C@H]1CC1(C)C)C2)[C@@H](C)OCC1CCCCC1` [I-185B], the IC50 was greater than 10 µM.

Turning to `CNC(=O)[C@@H](NC(=O)[C@@H]1CN(C(=O)c2cncs2)CC12CN(C(=O)C(C)(C)C)C2)[C@@H](C)OCC1CCCCC1` [I-186A], the IC50 is 0.5 to 5 µM.

`CNC(=O)[C@@H](NC(=O)[C@H]1CN(C(=O)c2cncs2)CC12CN(C(=O)C(C)(C)C)C2)[C@@H](C)OCC1CCCCC1` [I-186B]: the IC50 was greater than 10 µM.

On to `COC(=O)[C@@H](CO)NC(=O)[C@@H]1CN(C(=O)c2cnn(Cc3ccccc3)c2)CC12CN(C(=O)[C@H]1CC1(C)C)C2` [I-187A], for which the IC50 is greater than 10 µM.

As for `COC(=O)[C@@H](CO)NC(=O)[C@H]1CN(C(=O)c2cnn(Cc3ccccc3)c2)CC12CN(C(=O)[C@H]1CC1(C)C)C2` [I-187B], the IC50 was greater than 10 µM.

On to `C[C@@H](OCC1CCC(F)(F)CC1)[C@H](NC(=O)[C@@H]1CN(C(=O)c2cn[nH]c2)CC12CN(C(=O)C1(C(F)(F)F)CC1)C2)C(=O)N1CCC(F)(F)CC1` [I-188A], for which the IC50 was greater than 10 µM.

As for `C[C@@H](OCC1CCC(F)(F)CC1)[C@H](NC(=O)[C@H]1CN(C(=O)c2cn[nH]c2)CC12CN(C(=O)C1(C(F)(F)F)CC1)C2)C(=O)N1CCC(F)(F)CC1` [I-188B], the IC50 is greater than 10 µM.

With `C[C@@H](OCC1CCC(F)(F)CC1)[C@H](NC(=O)[C@@H]1CN(C(=O)c2cnn(Cc3ccc(F)cc3)c2)CC12CN(C(=O)C1(C(F)(F)F)CC1)C2)C(=O)N1CCC(F)(F)CC1` [I-190A], the IC50 was no more than 0.5 µM.

Regarding `CNC(=O)[C@@H](NC(=O)[C@@H]1CN(C(=O)c2cnn(Cc3ccccc3)c2)CC12CN(C(=O)[C@H]1CC1(C)C)C2)C(C)(C)S(=O)(=O)Cc1ccccc1` [I-199, (S)-6-(1-benzyl-1H-pyrazole-4-carbonyl)-N—((R)-3-(benzylsulfonyl)-3-methyl-1-(methylamino)-1-oxobutan-2-yl)-2-((S)-2,2-dimethylcyclopropane-1-carbonyl)-2,6-diazaspiro[3.4]octane-8-carboxamide], the IC50 is greater than 10 µM.

As to `C[C@@H](OCC1CCCCC1)[C@H](NC(=O)[C@@H]1CN(C(=O)c2cnn(Cc3ccccc3)c2)CC12CN(C(=O)[C@H]1CC1(C)C)C2)C(N)=O` [I-200], the IC50 lay within 0.5 to 5 µM.

As to `CC1(C)C[C@@H]1C(=O)N1CC2(CN(C(=O)c3cnn(Cc4ccccc4)c3)C[C@@H]2C(=O)N[C@@H]2CC[C@@H]2O)C1` [I-201A], the half-maximal inhibitory concentration (IC50) was greater than 10 µM.

In the case of `CC1(C)C[C@@H]1C(=O)N1CC2(CN(C(=O)c3cnn(Cc4ccccc4)c3)C[C@H]2C(=O)N[C@@H]2CC[C@@H]2O)C1` [I-201B], the IC50 was greater than 10 µM.

Regarding `CNC(=O)[C@@H](NC(=O)[C@@H]1CN(C(=O)c2cnn(Cc3ccccc3)c2)CC12CN(C(=O)[C@H]1CC1(C)C)C2)[C@@H](C)OCC1CCC(F)(F)CC1` [I-202], the IC50 lay in the range of 0.5 to 5 µM.

`CNC(=O)[C@@H](NC(=O)[C@@H]1CN(C(=O)c2cnn(Cc3ccccc3)c2)CC12CN(C(=O)[C@H]1CC1(C)C)C2)[C@@H](C)OCC(F)(F)F` [I-204]: the IC50 was greater than 10 µM.

By IC50 is commonly meant the point on the concentration scale where inhibition reaches its midpoint.
